In the test the test system is amyloid β production in transfected H4 (human neuroglioma) cells stably expressing APP constructs. Kind of test: In vitro cell-based assay of inhibitors of amyloid β production (ELISA). To be noted: amyloid β in medium by ELISA. Summed up:
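Cells expressing wild-type or variant APP were plated ≥6 h before medium was replaced with compound-containing medium (initial screen 10-100 μM) and incubated ~16 h. Secreted Aβ in medium was quantified by sandwich ELISA (C-terminal-specific mouse monoclonal capture, N-terminal rabbit polyclonal detection) against an Aβ standard curve.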

[1] abbreviates: transfected H4 cells stably expressing APP, approx. 16 h incubation, read-out: ACTIVITY (IC50, inhibition of amyloid β production).
Setting [2] is: Homo sapiens, 16 h, transfected H4 cells expressing APP, approximately 16 hours incubation, read-out: ACTIVITY (IC50, inhibition of amyloid β production).
[3] abbreviates: Table B, transfected H4 cells stably expressing APP, approximately 16 hours incubation, read-out: ACTIVITY (inhibitory concentration IC50, inhibition of amyloid β production).
Where [4] appears, read: transfected H4 cells stably expressing APP, approximately 16 hours incubation, read-out: ACTIVITY (IC50, inhibition of amyloid β production).
Where [5] appears, read: Homo sapiens, 16 h, transfected H4 cells stably expressing APP, approximately 16 hours incubation, read-out: ACTIVITY (IC50, inhibition of amyloid β production).
The mark [6] stands for this setting: Homo sapiens, 16 h, transfected H4 cells stably expressing APP, approximately 16 hours incubation, Table B, read-out: ACTIVITY (IC50, inhibition of amyloid β production).
The mark [7] stands for this setting: transfected H4 cells stably expressing APP constructs, approximately 16 hours incubation, read-out: ACTIVITY (IC50, inhibition of amyloid β production).
Where [8] appears, read: transfected H4 cells stably expressing APP, approximately 16 hours incubation, Table B, read-out: ACTIVITY (IC50, inhibition of amyloid β production).

Structures can show the parent of a compound that is named as a salt. Where two headings read alike, the source gives them in different places. Some results are limits rather than exact numbers.

As to “S-methyl 2-[2-(1-{[(4-chlorophenyl)sulfonyl]-2,5-difluoroanilino}ethyl)phenoxy]ethyl(ethyl)thiocarbamate [Example 771]”, the IC50 under setting [1] is 100 to 500 nM. For the compound `C[C@@H](C(=O)NCc1ccccc1Sc1ccccc1CO)N(c1cc(Cl)ccc1F)S(=O)(=O)c1ccc(Cl)cc1` [Example 1363], under setting [2], the IC50 is above 500 nM. Take `C[C@H](CCSCC(=O)O)N(c1cc(Cl)ccc1Cl)S(=O)(=O)c1ccc(Cl)cc1` [Example 180, (6R)-6-[(2,5-dichlorophenyl)[(4-chlorophenyl)sulfonyl]amino]-3-thioheptanoic Acid]: the IC50 under setting [3] was at most 25 nM.

As to `C[C@H](O)CCOC(c1ccccc1)(c1ccccc1)c1ccccc1` [Example 25, (S)-4-triphenylmethylyloxy-2-butanol], the IC50 under setting [3] is at most 25 nM. Take “N-{3-[2-({[(4-chlorophenyl)sulfonyl]-2,5-difluoroanilino}methyl)phenoxy]propyl}-N-methyl-4-nitrobenzamide [Example 872]”: the IC50 under setting [4] lay in the range of 100 to 500 nM. With `C[C@H](CCCNC(=O)OC(C)(C)C)N(c1cc(Cl)ccc1Cl)S(=O)(=O)c1ccc(Cl)cc1` [Example 1145, 4-chloro-N-(2,5-dichlorophenyl)-N-[4-[[(1,1-dimethylethoxy)carbonyl]amino]-1-methylbutyl]benzenesulfonamide], the IC50 (Homo sapiens, 16 h, transfected H4 cells stably expressing APP constructs, approximately 16 hours incubation, read-out: ACTIVITY (IC50, inhibition of amyloid β production)) fell in the range of 100 to 500 nM.

Take `COC(=O)C[S+]([O-])C[C@@H](C)N(c1cc(Cl)ccc1Cl)S(=O)(=O)c1ccc(Cl)cc1` (stereo partly drawn) [Example 178, Methyl(5R)-5-[(2,5-dichlorophenyl)[(4-chlorophenyl)sulfonyl]amino]-3-thiohexanoate,3 Oxide]: the IC50 under setting [3] is at most 25 nM. On to `C[C@H](c1ccccc1CCCn1cncn1)N(c1cc(F)ccc1F)S(=O)(=O)c1ccc(Cl)cc1` [Example 1066, 4-chloro-N-(2,5-difluorophenyl)-N-((1R)-1-{2-[3-(1H-1,2,4-triazol-1-yl)propyl]phenyl}ethyl)benzenesulfonamide], for which the IC50 under setting [5] was above 500 nM. For `C=CCN(Cc1ccccc1OCCCN1CCCCC1)S(=O)(=O)c1ccc(Cl)cc1` [Example 985, N-allyl-4-chloro-N-{2-[3-(1-piperidinyl)propoxy]benzyl}benzenesulfonamide hydrochloride], the IC50 under setting [5] is above 500 nM. For `C[C@H](C(=O)NC1CCCCCCC1)N(c1cc(Cl)ccc1F)S(=O)(=O)c1ccc(Cl)cc1` [Example 1345], the IC50 under setting [2] lay in the range of 100 to 500 nM.

As to `C[C@H](c1ccccc1Cn1ccnc1)N(c1cc(F)ccc1F)S(=O)(=O)c1ccc(Cl)cc1` [Example 438, 4-chloro-N-(2,5-difluorophenyl)-N-{(1R)-1-[2-(1H-imidazol-1-ylmethyl)phenyl]ethyl}benzenesulfonamide hydrochloride], the IC50 under setting [6] lay in the range of 50 to 100 nM.

Take `CC(c1ccccc1OCCCN(C)C(=O)c1cc([N+](=O)[O-])cc([N+](=O)[O-])c1)N(c1cc(F)ccc1F)S(=O)(=O)c1ccc(Cl)cc1` (stereo not shown) [Example 668, N-{3-[2-(1-{[(4-chlorophenyl)sulfonyl]-2,5-difluoroanilino}ethyl)phenoxy]propyl}-N-methyl-3,5-dinitrobenzamide]: the IC50 under setting [1] was 100 to 500 nM.

“3,4-dichloro-N-{3-[2-(1-{[(4-chlorophenyl)sulfonyl]-2,5-difluoroanilino}ethyl)phenoxy]propyl}-N-methylbenzenesulfonamide [Example 822]”: under setting [4], the IC50 is 100 to 500 nM.

For “2-((1R)-1-{[(4-chlorophenyl)sulfonyl]-2,5-difluoroanilino}ethyl)benzyl 2-phenylpropylcarbamate [Example 799]”, under setting [1], the IC50 was 100 to 500 nM. With “4-chloro-N-(2,5-dichlorophenyl)-N-[5-[[2-[(methylsulfonyl)-1-piperidinyl]-1(R)-methylpentyl]benzenesulfonamide [Example 1116]”, under setting [7], the IC50 lay in the range of 25 to 50 nM. On to `CC(c1ccccc1OCCCCN(C)C(=O)CSc1ccccc1)N(c1cc(F)ccc1F)S(=O)(=O)c1ccc(Cl)cc1` (stereo not shown) [Example 384, N-{4-[2-(1-{[(4-chlorophenyl)sulfonyl]-2,5-difluoroanilino}ethyl)phenoxy]butyl}-N-methyl-2-(phenylsulfanyl)acetamide], for which the IC50 under setting [6] is 50 to 100 nM. In the case of `O=S(=O)(c1ccc(Cl)cc1)N(Cc1ccccc1OCCCN1CCC(O)(C(F)(F)F)CC1)c1ccccc1` [Example 833, 4-chloro-N-(2-{3-[4-hydroxy-4-(trifluoromethyl)-1-piperidinyl]propoxy}benzyl)-N-phenylbenzenesulfonamide hydrochloride], the IC50 under setting [5] is 100 to 500 nM. For `C[C@H](COC(=O)NCCCn1ccnc1)N(c1cc(F)ccc1F)S(=O)(=O)c1ccc(Cl)cc1` [Example 517, 4-Chloro-N-(2,5-difluorophenyl)-N-[2-[[N′-[3-(1 h-imidazol-1-yl)propylamino]carbonyl]oxy]-(r)-1-methylethyl]benzenesulfonamide], under setting [8], the IC50 lay within 100 to 500 nM. For `CC(c1ccccc1OCCCN(C)S(=O)(=O)c1ccc([N+](=O)[O-])cc1)N(c1cc(F)ccc1F)S(=O)(=O)c1ccc(Cl)cc1` (stereo not shown) [Example 410, 4-chloro-N-(2,5-difluorophenyl)-N-{1-[2-(3-{methyl[(4-nitrophenyl)sulfonyl]amino}propoxy)phenyl]ethyl}benzenesulfonamide], under setting [6], the IC50 lay within 50 to 100 nM. For the compound `C[C@H](C(=O)NCc1cc(Cl)cc(Cl)c1)N(c1cc(Cl)ccc1F)S(=O)(=O)c1ccc(Cl)cc1` [Example 1365], the IC50 under setting [2] was above 500 nM. Regarding `CS(=O)(=O)C[C@H]1CCCN1` [Example 68], under setting [3], the IC50 is at most 25 nM. As for “N-{3-[2-({[(4-chlorophenyl)sulfonyl]-2,5-difluoroanilino}methyl)phenoxy]propyl}-2,3-difluoro-N-methylbenzamide [Example 665]”, under setting [1], the IC50 lay in the range of 100 to 500 nM.

For `C[C@H](CCCCN1CCCC(S(C)(=O)=O)C1)N(c1cc(Cl)ccc1Cl)S(=O)(=O)c1ccc(Cl)cc1` (stereo partly drawn) [Example 1115, 4-chloro-N-(2,5-dichlorophenyl)-N-[5-[(3-methylsulfonyl)-1-piperidinyl]-1(R)-methylpentyl]benzenesulfonamide], the IC50 under setting [7] was 25 to 50 nM. “2-bromo-N-{3-(2-({[(4-chlorophenyl)sulfonyl]-2,5-difluoroanilino}methyl)phenoxy]propyl}-N-methylbenzamide [Example 641]”: the IC50 under setting [1] fell in the range of 100 to 500 nM. Consider “N-hydroxy-3-(2-{[(phenylsulfonyl)anilino]methyl}phenyl)propanamide [Example 1042]”, for which, under setting [4], the IC50 is above 500 nM. As to `O=C1CCCC(=O)N1CCCOc1ccccc1CN(c1cc(F)ccc1F)S(=O)(=O)c1ccc(Cl)cc1` [Example 704, 4-chloro-N-(2,5-difluorophenyl)-N-{2-[3-(2,6-dioxo-1-piperidinyl)propoxy]benzyl}benzenesulfonamide], the IC50 (Homo sapiens, 16 h, transfected H4 cells stably expressing APP, approx. 16 h incubation, read-out: ACTIVITY (IC50, inhibition of amyloid β production)) was 100 to 500 nM.

Consider `O=S(=O)(c1ccc(Cl)cc1)N(Cc1ccccc1OCCC[N+]1([O-])CCCCC1)c1ccccc1` [Example 505, 4-Chloro-N-{2-[3-(1-hydroxy-1˜lambda˜5˜piperidin-1-yl)propoxy]benzyl}-N-phenylbenzenesulfonamide], for which, under setting [8], the IC50 is 100 to 500 nM. Consider `CCCC(C)N(Cc1ccccc1OCCCN1CCCCC1)S(=O)(=O)c1ccc(Cl)cc1` (stereo not shown) [Example 782, 4-chloro-N-(1-methylbutyl)-N-{2-[3-(1-piperidinyl)propoxy]benzyl}benzenesulfonamide hydrochloride], for which the IC50 under setting [1] is 100 to 500 nM.

The values are drawn from patent US6967196B1, “Sulfonamide compounds and uses thereof” (Bristol-Myers Squibb Company, priority 1999, dated 2005).
